One test concerns ERBB2. More on the design: method as in earlier work. The following applies: Table S1; cited from earlier work.
The next test concerns EGFR. Also noted: method as in earlier work. The following applies: Table S1; cited from earlier work.
The subject of another test is ERBB4. Also noted: method as in earlier work. The following applies: Table S1; cited from earlier work.
The next test deals with T1, HER2 kinase (Homo sapiens, UniProt P04626).
T1 construct: HER2 purified kinase domain (amino acids 676–1255); purchased Thermo Fischer Scientific PV3590
Briefly: Z'-LYTE Kinase Assay-Tyr6 Peptide biochemical HER2 kinase assay. The following applies: for IC50: Tyr6 peptide substrate, read-out: IC50, inhibition of ATP-induced HER2 phosphorylation. From the text: The Z’-LYTE™ Kinase Assay-Tyr6 Peptide kit (Thermo Fischer Scientific™, Madison, WI, USA) was employed to evaluate the potential of selected natural products to suppress the catalytic activity of HER2 kinase. The assay adopts a Fluorescence Resonance Energy Transfer (FRET) based method in a cell-free coupled-enzyme format with no use of antibodies. The assay method mainly relies on the difference in sensitivity of phosphorylated and non-phosphorylated peptides to proteolytic cleavage. This method is a ratio metric method that calculates the Emission Ratio of donor emission divided by acceptor emission after excitation of the donor fluorophore at 400 nm. In this assay, 20 µL/well reactions containing kinase buffer, 200 µM ATP, 4µM Z’-LYTE Tyr6 Peptide substrate, 2500 ng/mL HER2 kinase, and drugs of interest functioning as inhibitors were set up in 96-well plates. Each well received 10 µL of site-specific protease development solution after one hour of room temperature incubation. The incubation continued for a full hour. Following process termination, the kinase inhibitory activity and/or peptide substrate cleavage status were assessed using a plate reader (BioTek FLx800™) to measure the ratio of fluorescence signal at 445 nm (coumarin)/520 nm (fluorescein).
The IC50 value for each natural product was computed using XLfit® 4.1 software (ID Business Solutions Inc. (IDBS), Emeryville CA), applying non-linear regression of log concentration against the percentage of HER2 inhibition.
Utilizing the Z’-LYTE™ Kinase Assay-Tyr6 Peptide kit as a cell-free system for evaluating the inhibitory activity of HER2, the five natural products were evaluated for their capacity to inhibit HER2 phosphorylation. Since its kinase catalysis is necessary for all HER2-mediated activities, we attempted at this initial stage to validate the HER2 inhibitory ability of the five in silico hits directly on the HER2 purified kinase domain (amino acids 676–1255), that was in vitro phosphorylated to attain the maximum level of intrinsic kinase activity. In this assay, the substrate was Z’-LYTE™ Tyr6 peptide; thus, the changes in its phosphorylation can directly correlate with the HER2 kinase activity. In the meantime, tyrphostin AG 1478 was used as a positive control to ensure the validity of the assay. Lapatinib (Tykerb®) was included as a second positive control to benchmark virtual hits’ performance against clinically approved standards.

Test [1] concerns BT-474 cells. Briefly: MTT proliferation assay, BT-474. In kind it is cell-based, human. Background: Tetrazolium assays rely on reduction of a dye to a coloured formazan, in cell work by metabolically active cells.
The subject of test [2] is SKBR3 cells. Briefly: MTT proliferation assay, SKBR3. In kind it is cell-based, human.
The subject of test [3] is BT-474 cells. Briefly: Wound healing assay, BT-474. It counts as cell-based. The following applies: Homo sapiens. The protocol: (§1) In a sterile flat-bottom 24-well plate, SKBR3 and BT-474 breast cancer cells were plated at a density of 1 × 10^5 cells/well. […] Wounds were then inflicted across each cell monolayer using a sterile 200 µL pipette tip. Media was aspirated, and cells were washed twice with PBS to remove floating cells and cell debris. Fresh serum-free media was placed up against the well wall to cover the bottom of the well and prevent further cell detachment. Incubation of cells was resumed for five hours at 37 °C in a humidified CO2 incubator. Subsequently, the media were substituted with fresh ones containing various doses of liquiritin, oroxin B, or DMSO as a vehicle control (3 replicates/group) along with EGF (100 ng/mL) as a scattering factor. Wound closure was microscopically monitored in vehicle-treated control wells, and the time frame for wound closure was determined to be 72 h. Before the closure of wounds in the vehicle-treated control wells, the media were removed, cells were washed with PBS and completely fixed using cold methanol for 20 min at 4 °C. An inverted VistaVision microscope was used to take pictures of the wounds monitored at zero and 72 h with a VistaVision Still camera (VWR, Radnor, PA).
(§2) Results were expressed as a percentage of cell migration according to the following Equation[16]: [drawing 2]
(§3) Where Tt is the wound thickness in treatment wells, TDMSO is the thickness of the wound in control wells treated by DMSO, and Tº is the thickness of the wound at zero time. Wound thickness was calculated in three or more randomly selected fields per treatment group.

Test [4] relates to SKBR3 cells. Briefly: Wound healing assay, SKBR3. In kind it is cell-based. As to conditions: Homo sapiens. How it is done: as §1, §2, §3
The subject of the next test is MCF10A cells. Briefly: MTT cytotoxicity assay, non-tumorigenic MCF10A. It counts as cell-based, human.
Setting [5] is: Homo sapiens, BT-474, MTT, 48 h (Table S8), read-out: Cell growth inhibition IC50.
Setting [6] is: Homo sapiens, SK-BR-3, SKBR3, MTT, 48 h (Table S8), read-out: Cell growth inhibition IC50.
[7] abbreviates: Homo sapiens, BT-474, Table S9, read-out: IC50.

Some results are limits rather than exact numbers.

T1 sequence (P04626 676-1255): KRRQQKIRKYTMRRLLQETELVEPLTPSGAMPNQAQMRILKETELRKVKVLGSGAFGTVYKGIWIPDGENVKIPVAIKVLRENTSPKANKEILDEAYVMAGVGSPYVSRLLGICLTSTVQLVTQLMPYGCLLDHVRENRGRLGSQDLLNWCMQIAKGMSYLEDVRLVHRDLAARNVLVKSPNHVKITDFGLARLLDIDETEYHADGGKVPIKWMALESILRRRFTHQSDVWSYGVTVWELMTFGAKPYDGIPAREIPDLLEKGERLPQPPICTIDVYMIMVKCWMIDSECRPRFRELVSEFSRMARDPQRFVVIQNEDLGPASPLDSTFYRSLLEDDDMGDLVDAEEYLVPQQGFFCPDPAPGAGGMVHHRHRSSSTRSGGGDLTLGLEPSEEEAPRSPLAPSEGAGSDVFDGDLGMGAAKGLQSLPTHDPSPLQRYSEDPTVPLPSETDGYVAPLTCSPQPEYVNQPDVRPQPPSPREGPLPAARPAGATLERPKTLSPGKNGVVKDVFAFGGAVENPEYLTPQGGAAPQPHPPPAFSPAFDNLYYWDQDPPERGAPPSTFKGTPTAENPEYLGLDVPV

For `COc1cc2ncnc(Nc3ccc(F)c(Cl)c3)c2cc1NC(=O)/C=C/CN1CCCCC1` [Dacomitinib], the values for the IC50 in the test with ERBB2, in the test on EGFR and in the test with ERBB4 were […], 0.006 µM and […], respectively.
As to `OC[C@H]1O[C@@H](Oc2cc3c(O[C@@H]4O[C@H](CO)[C@@H](O)[C@H](O)[C@H]4O)cc(O)cc3[o+]c2-c2cc(O)c(O)c(O)c2)[C@H](O)[C@@H](O)[C@@H]1O` [Delphin, Delphinidin-3,5-O-diglucoside], at HER2 kinase (cell-free Z'-LYTE), the “suppression of HER2 phosphorylation” value was “no discernible suppression”.
On to `CS(=O)(=O)CCNCc1ccc(-c2ccc3ncnc(Nc4ccc(OCc5cccc(F)c5)c(Cl)c4)c3c2)o1` [Lapatinib, reference compound], for which the IC50 in the test on BT-474 cells [1] (setting [5]) was determined as 0.117 µM; with BT-474 cells [1] (Homo sapiens, BT-474, MTT, 48 h, read-out: IC50), 0.118 µM; with SKBR3 cells [2] (Homo sapiens, SK-BR-3, SKBR3, MTT, 48 h, read-out: IC50), 0.153 µM. In addition, the inhibition at 0.015 µM on HER2 kinase (at 15 nM) was 54%. On HER2 kinase (at 30 nM), the inhibition at 0.03 µM came out at 75%.
Consider `C[C@@H]1O[C@@H](OC[C@H]2O[C@@H](Oc3cc(O)c4c(=O)cc(-c5ccc(O)cc5)oc4c3)[C@H](O[C@@H]3O[C@@H](C)[C@H](O)[C@@H](O)[C@H]3O)[C@@H](O)[C@@H]2O)[C@H](O)[C@H](O)[C@H]1O` [Ligustroflavone], for which the IC50 in the test with BT-474 cells [1] (BT-474, MTT, 48 h (Table S8), read-out: Cell growth inhibition IC50) is 6 µM; in the test with SKBR3 cells [2] (SKBR3, MTT, 48 h (Table S8), read-out: Cell growth inhibition IC50), 12.7 µM; on HER2 kinase (cell-free Z'-LYTE) it was 0.0365 µM.
In the case of `OC[C@H]1O[C@@H](Oc2cc(O)cc(/C=C/c3ccc(O[C@@H]4O[C@H](CO)[C@@H](O)[C@H](O)[C@H]4O)cc3O)c2)[C@H](O)[C@@H](O)[C@@H]1O` [Mulberroside A], the IC50 with BT-474 cells [1] (setting [5]) was 5.9 µM; in the test on SKBR3 cells [2] (setting [6]), 11 µM; at HER2 kinase (cell-free Z'-LYTE) it was 0.0377 µM.
Take `O=c1cc(-c2ccccc2)oc2cc(O[C@@H]3O[C@H](CO[C@@H]4O[C@H](CO)[C@@H](O)[C@H](O)[C@H]4O)[C@@H](O)[C@H](O)[C@H]3O)c(O)c(O)c12` [Oroxin B]: the IC50 is over 20 µM in the test on BT-474 cells [3] (BT-474, read-out: IC50, cell migration); 6.9 µM in the test on BT-474 cells [1] (setting [5]); 6.9 ± 0.7 µM in the test on BT-474 cells [1] (setting [7]); 11.9 µM with SKBR3 cells [2] (setting [6]); 11.9 ± 0.8 µM with SKBR3 cells [2] (Homo sapiens, SK-BR-3, SKBR3, Table S9, read-out: IC50); over 36 µM in the test with SKBR3 cells [4] (SK-BR-3, read-out: IC50, cell migration). For the same compound, the IC50 in the test with MCF10A cells (Homo sapiens, MCF-10A, MCF10A, MTT, 24 h) was determined as 53 ± 2.1 µM; on HER2 kinase (cell-free Z'-LYTE) it was 0.0121 µM. Further, the inhibition at 3 µM in the test with BT-474 cells [3] (BT-474, 3 µM, 72 h, read-out: inhibition of cell migration) was 18.9%. Further, the inhibition at 7 µM in the test on BT-474 cells [3] (BT-474, 7 µM, 72 h, read-out: inhibition of cell migration) is 26.5%. In the test on BT-474 cells [3] (BT-474, 10 µM, 72 h, read-out: inhibition of cell migration), the inhibition at 10 µM was found to be 29.5%. The inhibition at 20 µM with BT-474 cells [3] (BT-474, 20 µM, 72 h, read-out: inhibition of cell migration) was determined as 38.6%. Also, in the test on SKBR3 cells [4] (SK-BR-3, SKBR3, 6 µM, 72 h, read-out: inhibition of cell migration), the inhibition at 6 µM stood at 23.5%. For the same compound, the inhibition at 12 µM in the test with SKBR3 cells [4] (SK-BR-3, SKBR3, 12 µM, 72 h, read-out: inhibition of cell migration) came out at 26.5%. The inhibition at 18 µM in the test on SKBR3 cells [4] (SK-BR-3, SKBR3, 18 µM, 72 h, read-out: inhibition of cell migration) came out at 31.1%. In addition, the inhibition at 36 µM in the test on SKBR3 cells [4] (SK-BR-3, SKBR3, 36 µM, 72 h, read-out: inhibition of cell migration) turned out to be 34.8%. Further, the “selectivity index (SI)” value in the test with MCF10A cells (IC50 MCF10A / IC50 BT-474) turned out to be 7.7; with MCF10A cells (IC50 MCF10A / IC50 SKBR3), 4.5.
For the compound `CN[C@@H]1C[C@H]2O[C@@](C)([C@@H]1OC)n1c3ccccc3c3c4c(c5c6ccccc6n2c5c31)C(=O)NC4` [Staurosporine, reference compound], the IC50 was 3.2 µM in the test with BT-474 cells [1] (setting [5]) and 3.2 ± 0.3 µM with BT-474 cells [1] (setting [7]).

The values above are taken from paper PMC12267471, “Discovery of natural scaffolds as HER2 inhibitors for breast cancer: virtual screening, molecular dynamics, and biological characterization with selectivity profiling” (Scientific Reports, 2025).
